According to PubChem BioAssay (NCI):
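Where inhibition never reached the appropriate level, the endpoint shown equals the highest concentration tested. Otherwise, values were interpolated linearly from a five-concentration, 48-hour dose response in 96-well plates. GI50 marks 50% less growth. TGI: concentration producing complete growth inhibition.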

What was measured:
Test in all cases: NCI anticancer screen, dose series, 48 h
MDA-MB-435 = system: MDA-MB-435
SR leukemia = system: SR leukemia
TK-10 renal = system: TK-10 renal
M14 melanoma = system: M14 melanoma
MOLT-4 leukemia = system: MOLT-4 leukemia
SNB-19 CNS = system: SNB-19 CNS
OVCAR-3 ovarian = system: OVCAR-3 ovarian
IGROV1 ovarian = system: IGROV1 ovarian
LOX IMVI melanoma = system: LOX IMVI melanoma
HCC-2998 colon = system: HCC-2998 colon
HL-60(TB) leukemia = system: HL-60(TB) leukemia
SF-539 CNS = system: SF-539 CNS
HOP-92 NSCLC = system: HOP-92 NSCLC
786-0 renal = system: 786-0 renal
OVCAR-5 ovarian = system: OVCAR-5 ovarian
MDA-MB-231 breast = system: MDA-MB-231 breast
SK-OV-3 ovarian = system: SK-OV-3 ovarian
PC-3 prostate = system: PC-3 prostate
T-47D breast = system: T-47D breast
NCI/ADR-RES ovarian = system: NCI/ADR-RES ovarian
DU-145 prostate = system: DU-145 prostate
ACHN renal = system: ACHN renal
SN12C renal = system: SN12C renal
OVCAR-4 ovarian = system: OVCAR-4 ovarian
SK-MEL-28 melanoma = system: SK-MEL-28 melanoma
SK-MEL-5 melanoma = system: SK-MEL-5 melanoma
BT-549 breast = system: BT-549 breast
KM12 colon = system: KM12 colon
CAKI-1 renal = system: CAKI-1 renal
A498 renal = system: A498 renal
RPMI-8226 leukemia = system: RPMI-8226 leukemia
SNB-75 CNS = system: SNB-75 CNS
HCT-15 colon = system: HCT-15 colon
HOP-62 NSCLC = system: HOP-62 NSCLC
SW-620 colon = system: SW-620 colon
UACC-62 melanoma = system: UACC-62 melanoma
SF-268 CNS = system: SF-268 CNS
HS 578T breast = system: HS 578T breast
SF-295 CNS = system: SF-295 CNS
UACC-257 melanoma = system: UACC-257 melanoma
SK-MEL-2 melanoma = system: SK-MEL-2 melanoma
RXF 393 renal = system: RXF 393 renal
OVCAR-8 ovarian = system: OVCAR-8 ovarian
MALME-3M melanoma = system: MALME-3M melanoma
COLO 205 colon = system: COLO 205 colon
A549 NSCLC = system: A549 NSCLC
NCI-H522 lung = system: NCI-H522 lung
NCI-H460 lung = system: NCI-H460 lung
EKVX NSCLC = system: EKVX NSCLC
MCF7 breast = system: MCF7 breast
NCI-H23 lung = system: NCI-H23 lung
HCT-116 colon = system: HCT-116 colon
UO-31 renal = system: UO-31 renal
HT29 colon = system: HT29 colon
U251 CNS = system: U251 CNS
K-562 leukemia = system: K-562 leukemia
NCI-H226 lung = system: NCI-H226 lung
CCRF-CEM leukemia = system: CCRF-CEM leukemia

CCCC(=O)NC(c1ccc(N(CC)CC)cc1)c1cc(C)c2cccnc2c1O (stereo not drawn)
GI50 (MDA-MB-435): 409 nM | TGI (MDA-MB-435): > 48600 nM | GI50 (SR leukemia): 388 nM | TGI (SR leukemia): > 54400 nM | GI50 (TK-10 renal): 489 nM | TGI (TK-10 renal): > 100000 nM | GI50 (M14 melanoma): 462 nM | TGI (M14 melanoma): 5120 nM | GI50 (MOLT-4 leukemia): 397 nM | TGI (MOLT-4 leukemia): > 100000 nM | GI50 (SNB-19 CNS): 464 nM | TGI (SNB-19 CNS): > 100000 nM | GI50 (OVCAR-3 ovarian): 374 nM | TGI (OVCAR-3 ovarian): > 100000 nM | GI50 (IGROV1 ovarian): 439 nM | TGI (IGROV1 ovarian): 14600 nM | GI50 (LOX IMVI melanoma): 496 nM | TGI (LOX IMVI melanoma): > 100000 nM | GI50 (HCC-2998 colon): 570 nM | TGI (HCC-2998 colon): > 100000 nM | GI50 (HL-60(TB) leukemia): 331 nM | TGI (HL-60(TB) leukemia): 4850 nM | GI50 (SF-539 CNS): 462 nM | TGI (SF-539 CNS): 4560 nM | GI50 (HOP-92 NSCLC): 306 nM | TGI (HOP-92 NSCLC): > 100000 nM | GI50 (786-0 renal): 763 nM | TGI (786-0 renal): > 38500 nM | GI50 (OVCAR-5 ovarian): 791 nM | TGI (OVCAR-5 ovarian): > 100000 nM | GI50 (MDA-MB-231 breast): 539 nM | TGI (MDA-MB-231 breast): > 100000 nM | GI50 (SK-OV-3 ovarian): 635 nM | TGI (SK-OV-3 ovarian): > 100000 nM | GI50 (PC-3 prostate): 477 nM | TGI (PC-3 prostate): > 100000 nM | GI50 (T-47D breast): 675 nM | TGI (T-47D breast): > 100000 nM | GI50 (NCI/ADR-RES ovarian): 366 nM | TGI (NCI/ADR-RES ovarian): > 100000 nM | GI50 (DU-145 prostate): 710 nM | TGI (DU-145 prostate): > 100000 nM | GI50 (ACHN renal): 422 nM | TGI (ACHN renal): > 24300 nM | GI50 (SN12C renal): 828 nM | TGI (SN12C renal): > 100000 nM | GI50 (OVCAR-4 ovarian): 394 nM | TGI (OVCAR-4 ovarian): > 100000 nM | GI50 (SK-MEL-28 melanoma): 561 nM | TGI (SK-MEL-28 melanoma): > 100000 nM | GI50 (SK-MEL-5 melanoma): 639 nM | TGI (SK-MEL-5 melanoma): 5530 nM | GI50 (BT-549 breast): 1040 nM | TGI (BT-549 breast): > 59200 nM | GI50 (KM12 colon): 454 nM | TGI (KM12 colon): > 100000 nM | GI50 (CAKI-1 renal): 381 nM | GI50 (A498 renal): > 100000 nM | TGI (A498 renal): > 100000 nM | GI50 (RPMI-8226 leukemia): 520 nM | TGI (RPMI-8226 leukemia): > 100000 nM | GI50 (SNB-75 CNS): 199 nM | TGI (SNB-75 CNS): 1800 nM | GI50 (HCT-15 colon): 323 nM | TGI (HCT-15 colon): > 100000 nM | GI50 (HOP-62 NSCLC): 511 nM | TGI (HOP-62 NSCLC): > 100000 nM | GI50 (SW-620 colon): 522 nM | TGI (SW-620 colon): > 100000 nM | GI50 (UACC-62 melanoma): 347 nM | TGI (UACC-62 melanoma): 1390 nM | GI50 (SF-268 CNS): 438 nM | TGI (SF-268 CNS): 32600 nM | GI50 (HS 578T breast): 358 nM | TGI (HS 578T breast): > 100000 nM | GI50 (SF-295 CNS): 352 nM | TGI (SF-295 CNS): > 100000 nM | GI50 (UACC-257 melanoma): 834 nM | TGI (UACC-257 melanoma): > 24600 nM | GI50 (SK-MEL-2 melanoma): 399 nM | TGI (SK-MEL-2 melanoma): > 42000 nM | GI50 (RXF 393 renal): 1450 nM | TGI (RXF 393 renal): > 26900 nM | GI50 (OVCAR-8 ovarian): 381 nM | TGI (OVCAR-8 ovarian): > 100000 nM | GI50 (MALME-3M melanoma): 1450 nM | TGI (MALME-3M melanoma): > 87300 nM | GI50 (COLO 205 colon): 398 nM | TGI (COLO 205 colon): > 100000 nM | GI50 (A549 NSCLC): 737 nM | TGI (A549 NSCLC): > 100000 nM | GI50 (NCI-H522 lung): 319 nM | GI50 (NCI-H460 lung): 247 nM | GI50 (EKVX NSCLC): 313 nM | TGI (EKVX NSCLC): 5040 nM | GI50 (MCF7 breast): 303 nM | TGI (MCF7 breast): > 100000 nM | GI50 (NCI-H23 lung): 462 nM | TGI (NCI-H23 lung): > 100000 nM | GI50 (HCT-116 colon): 381 nM | TGI (HCT-116 colon): > 100000 nM | GI50 (UO-31 renal): 302 nM | TGI (UO-31 renal): 5670 nM | GI50 (HT29 colon): 492 nM | TGI (HT29 colon): > 100000 nM | GI50 (U251 CNS): 386 nM | TGI (U251 CNS): > 100000 nM | GI50 (K-562 leukemia): 336 nM | TGI (K-562 leukemia): > 100000 nM | GI50 (NCI-H226 lung): 513 nM | TGI (NCI-H226 lung): 4260 nM | GI50 (CCRF-CEM leukemia): 407 nM | TGI (CCRF-CEM leukemia): > 100000 nM
